Molecules are shown by their SMILES. Active and inactive are the calls of the source. No cut-off for these calls is given here.

This note sets out measurements from ChEMBL document CHEMBL1140644, “New modifications to the area of pyrazole-naphthyl urea based p38 MAP kinase inhibitors that bind to the adenine/ATP site” (Bioorg Med Chem Lett, 2007).

The subject of one data set is THP-1. The data set is described as follows: Inhibition of LPS-induced TNFalpha production in THP1 cells. It is filed as functional, cell-based. The conditions noted are these: Homo sapiens.
The subject of data set [1] is Mus musculus. The data set is described as follows: Inhibition of LPS-induced TNFalpha production in mouse at 3 mg/kg after 1 hr. It is filed as functional.
A further data set concerns Blood. Put plainly: Inhibition of LPS-induced TNFalpha production in human whole blood. It is filed as functional, tissue-based.
Data set [2] relates to Mus musculus. Put plainly: Inhibition of LPS-induced TNFalpha production in mouse at 10 mg/kg after 1 hr. It is filed as functional.
Another data set is filed under the species Homo sapiens. Put plainly: Protein binding in human plasma by equilibrium dialysis. The conditions noted are these: read-out: PPB. (In general: In equilibrium dialysis free small molecules cross a membrane that holds back macromolecules.)
In data set [3] the target is Tyrosine-protein kinase ABL1 (Homo sapiens, UniProt P00519). The data set is described as follows: Inhibition of Abl.
Data set [4] is described as follows: Lipophilicity, log D at pH 7.4. It is filed as physicochemical. The conditions noted are these: buffer.
In data set [5] the target is Proto-oncogene tyrosine-protein kinase Src (Homo sapiens, UniProt P12931). The data set is described as follows: Inhibition of Src.
Data set [6] has as its target Tyrosine-protein kinase Lyn (Homo sapiens, UniProt P07948). The data set is described as follows: Inhibition of Lyn.
For data set [7], the target named is Mitogen-activated protein kinase 9 (Homo sapiens, UniProt P45984). The data set is described as follows: Inhibition of Jnk2.
Data set [8] deals with RAF proto-oncogene serine/threonine-protein kinase (Homo sapiens, UniProt P04049). The data set is described as follows: Inhibition of cRaf.
Sequence of RAF proto-oncogene serine/threonine-protein kinase (P04049 whole entry): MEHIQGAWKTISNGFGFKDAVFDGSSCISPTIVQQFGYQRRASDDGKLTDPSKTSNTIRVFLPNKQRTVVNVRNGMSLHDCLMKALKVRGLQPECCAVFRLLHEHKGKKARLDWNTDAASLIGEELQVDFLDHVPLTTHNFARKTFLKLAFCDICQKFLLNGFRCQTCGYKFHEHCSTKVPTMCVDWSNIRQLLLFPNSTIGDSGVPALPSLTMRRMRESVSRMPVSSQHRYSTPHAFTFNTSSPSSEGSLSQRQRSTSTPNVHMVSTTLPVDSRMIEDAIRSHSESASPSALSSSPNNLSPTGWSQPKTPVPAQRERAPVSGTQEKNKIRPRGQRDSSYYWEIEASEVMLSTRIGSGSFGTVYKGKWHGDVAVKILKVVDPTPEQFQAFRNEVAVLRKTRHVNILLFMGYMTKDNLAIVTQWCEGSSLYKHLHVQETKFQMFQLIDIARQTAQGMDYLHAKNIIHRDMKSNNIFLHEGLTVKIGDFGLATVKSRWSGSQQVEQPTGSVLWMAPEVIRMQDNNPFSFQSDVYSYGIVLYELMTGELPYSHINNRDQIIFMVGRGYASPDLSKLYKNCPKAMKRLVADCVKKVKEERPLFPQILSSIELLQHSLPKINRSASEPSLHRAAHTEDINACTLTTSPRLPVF

Sequence of Mitogen-activated protein kinase 9 (P45984 whole entry): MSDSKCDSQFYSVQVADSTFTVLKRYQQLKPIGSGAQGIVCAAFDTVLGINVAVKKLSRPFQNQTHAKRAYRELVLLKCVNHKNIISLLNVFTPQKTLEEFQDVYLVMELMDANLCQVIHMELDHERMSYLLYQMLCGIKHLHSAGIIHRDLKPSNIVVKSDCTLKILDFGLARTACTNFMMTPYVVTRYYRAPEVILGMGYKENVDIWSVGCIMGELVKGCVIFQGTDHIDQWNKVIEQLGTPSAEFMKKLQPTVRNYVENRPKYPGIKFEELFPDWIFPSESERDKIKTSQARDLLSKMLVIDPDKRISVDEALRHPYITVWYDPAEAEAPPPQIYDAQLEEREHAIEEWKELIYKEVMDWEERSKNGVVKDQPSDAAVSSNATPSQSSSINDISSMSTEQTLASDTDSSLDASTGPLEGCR
Sequence of Tyrosine-protein kinase Lyn (P07948 whole entry): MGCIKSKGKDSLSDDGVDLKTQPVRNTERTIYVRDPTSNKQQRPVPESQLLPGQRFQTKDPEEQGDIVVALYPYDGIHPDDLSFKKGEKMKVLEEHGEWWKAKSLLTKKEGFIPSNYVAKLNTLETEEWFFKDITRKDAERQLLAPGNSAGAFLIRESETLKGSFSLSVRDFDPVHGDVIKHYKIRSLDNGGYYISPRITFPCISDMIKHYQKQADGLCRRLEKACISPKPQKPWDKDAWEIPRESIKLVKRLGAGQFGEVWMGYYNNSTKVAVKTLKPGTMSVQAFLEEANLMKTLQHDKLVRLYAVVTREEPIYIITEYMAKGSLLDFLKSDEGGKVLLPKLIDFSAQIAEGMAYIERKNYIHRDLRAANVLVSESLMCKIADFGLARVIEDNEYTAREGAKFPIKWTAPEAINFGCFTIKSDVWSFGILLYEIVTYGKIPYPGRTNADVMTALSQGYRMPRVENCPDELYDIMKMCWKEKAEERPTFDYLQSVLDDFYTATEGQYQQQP
Sequence of Proto-oncogene tyrosine-protein kinase Src (P12931 2-536 limits assumed): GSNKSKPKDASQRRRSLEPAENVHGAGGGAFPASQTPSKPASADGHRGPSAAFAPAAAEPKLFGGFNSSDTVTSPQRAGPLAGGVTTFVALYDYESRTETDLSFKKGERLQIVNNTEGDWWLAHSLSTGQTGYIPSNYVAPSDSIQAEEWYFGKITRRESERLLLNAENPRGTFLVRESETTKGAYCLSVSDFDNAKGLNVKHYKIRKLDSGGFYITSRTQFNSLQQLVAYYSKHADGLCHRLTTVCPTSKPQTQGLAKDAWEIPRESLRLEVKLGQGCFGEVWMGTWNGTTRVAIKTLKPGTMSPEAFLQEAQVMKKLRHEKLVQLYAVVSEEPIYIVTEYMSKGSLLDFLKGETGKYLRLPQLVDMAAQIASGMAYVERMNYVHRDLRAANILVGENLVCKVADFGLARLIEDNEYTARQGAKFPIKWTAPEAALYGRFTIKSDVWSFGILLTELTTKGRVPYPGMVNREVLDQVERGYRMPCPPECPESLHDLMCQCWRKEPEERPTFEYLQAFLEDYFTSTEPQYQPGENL
Sequence of Tyrosine-protein kinase ABL1 (P00519 whole entry): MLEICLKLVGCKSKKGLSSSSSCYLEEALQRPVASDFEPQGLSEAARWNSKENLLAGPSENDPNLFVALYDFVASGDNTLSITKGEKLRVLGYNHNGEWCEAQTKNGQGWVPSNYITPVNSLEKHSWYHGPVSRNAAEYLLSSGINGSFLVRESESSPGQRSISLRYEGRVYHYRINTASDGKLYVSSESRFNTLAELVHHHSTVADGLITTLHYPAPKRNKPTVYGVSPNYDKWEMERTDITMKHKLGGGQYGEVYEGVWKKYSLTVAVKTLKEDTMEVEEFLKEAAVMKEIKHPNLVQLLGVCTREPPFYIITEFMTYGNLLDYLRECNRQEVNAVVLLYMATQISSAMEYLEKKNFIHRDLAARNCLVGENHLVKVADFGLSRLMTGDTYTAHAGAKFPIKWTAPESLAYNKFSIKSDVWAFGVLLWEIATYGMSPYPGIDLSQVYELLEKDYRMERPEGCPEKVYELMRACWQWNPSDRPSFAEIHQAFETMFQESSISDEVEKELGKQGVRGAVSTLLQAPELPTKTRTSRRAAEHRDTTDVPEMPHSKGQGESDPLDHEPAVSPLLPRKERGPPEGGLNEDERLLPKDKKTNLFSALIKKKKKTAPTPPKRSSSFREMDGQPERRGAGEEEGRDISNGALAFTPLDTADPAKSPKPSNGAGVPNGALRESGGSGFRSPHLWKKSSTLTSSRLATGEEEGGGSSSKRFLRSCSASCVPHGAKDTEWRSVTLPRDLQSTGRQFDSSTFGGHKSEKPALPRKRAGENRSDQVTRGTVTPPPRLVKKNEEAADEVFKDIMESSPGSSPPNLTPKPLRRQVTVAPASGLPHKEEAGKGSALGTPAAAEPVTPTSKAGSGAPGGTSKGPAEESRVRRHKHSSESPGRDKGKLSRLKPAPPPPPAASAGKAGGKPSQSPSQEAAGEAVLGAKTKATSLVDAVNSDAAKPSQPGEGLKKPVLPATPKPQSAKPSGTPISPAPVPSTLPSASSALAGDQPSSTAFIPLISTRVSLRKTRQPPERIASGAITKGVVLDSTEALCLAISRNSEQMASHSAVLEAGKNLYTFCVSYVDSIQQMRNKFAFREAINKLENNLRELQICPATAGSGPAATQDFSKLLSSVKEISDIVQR

The term IC50 denotes the concentration that inhibits the measured activity by half. One may read the inhibition in vivo as how much of the control response was suppressed. With `Cn1cc(-n2nc(C(C)(C)C)cc2NC(=O)Nc2ccc(-c3ccc(CN4CCOCC4)nc3)c3ccccc23)cn1`, the IC50 was determined as 11 nM with THP-1 and 90 nM in the data set with Blood. Moreover, the inhibition in vivo at 3 mg/kg in the data set on Mus musculus [1] amounted to 73%.
With `Cc1ncc(-n2nc(C(C)(C)C)cc2NC(=O)Nc2ccc(-c3ccc(CN4CCOCC4)nc3)c3ccccc23)cn1`, the IC50 with THP-1 worked out at 14 nM; in the data set with Blood, 160 nM. In the data set with Mus musculus [2], testing at 10 mg/kg gave an inhibition in vivo of 95%. In addition, in the data set with Mus musculus [1], the inhibition in vivo at 3 mg/kg is 85%. For the same molecule, in the data set listed under Homo sapiens, the fraction unbound was < 0.03.
Turning to `Cc1ccc(-n2nc(C(C)(C)C)cc2NC(=O)Nc2cccc3ccccc23)cc1`, the results for the IC50 in the data set on THP-1 and with Blood were 320 nM and > 15000 nM, respectively.
Turning to `Cc1ccc(-n2nc(C(C)(C)C)cc2NC(=O)Nc2ccc(-c3ccc(CN4CCOCC4)cc3)c3ccccc23)cc1`, the results for the IC50 in the data set with THP-1 and in the data set with Blood were 36 nM and 1100 nM, respectively.
`Cc1ccc(-n2nc(C(C)(C)C)cc2NC(=O)Nc2ccc(-c3ccc(N4CCOCC4)cc3)c3ccccc23)cc1`: the IC50 was 470 nM in the data set with THP-1 and > 15000 nM in the data set on Blood.
Take `Cn1nc(C(C)(C)C)cc1NC(=O)Nc1ccc(-c2ccc(CN3CCOCC3)nc2)c2ccccc12`: the IC50 in the data set on THP-1 turned out to be 32 nM; with Blood, 950 nM. Also, the result in the data set with Mus musculus [2] was inactive.
For the molecule `Cc1ccc(-n2nc(C(C)(C)C)cc2NC(=O)Nc2ccc(-c3cccc(CN4CCOCC4)c3)c3ccccc23)cc1`, the IC50 came out at 56 nM in the data set on THP-1 and 3900 nM in the data set with Blood.
`Cc1ccc(-n2nc(C(C)(C)C)cc2NC(=O)Nc2ccc(-c3ccco3)c3ccccc23)cc1` registered an IC50 in the data set with THP-1 of 390 nM.
Turning to `Cc1ccc(-n2nc(C(C)(C)C)cc2NC(=O)Nc2ccc(-c3ccc(CN4CCN(C)CC4)cc3)c3ccccc23)cc1`, the figures for the IC50 with THP-1 and with Blood were 46 nM and 3600 nM, respectively.
The corresponding values for `Cc1ccc(-n2nc(C(C)(C)C)cc2NC(=O)Nc2ccc(-c3ccccc3)c3ccccc23)cc1` are 1430 nM and > 15000 nM.
One may read the logD as lipophilicity at a set pH, counting ionised and neutral species. Read a high logD as higher lipophilicity. Consider `Cc1ccc(-n2nc(C(C)(C)C)cc2NC(=O)Nc2ccc(-c3ccc(CN4CCOCC4)nc3)c3ccccc23)cc1`, for which the IC50 in the data set on THP-1 was 9 nM; in [3] it was 1000 nM; in [5], 1000 nM; in data set [6] it was 1000 nM; in data set [7], 2 nM; with Blood it was 230 nM. The molecule also showed an IC50 in data set [8] of 400 nM. Moreover, the inhibition in vivo at 10 mg/kg in the data set on Mus musculus [2] was 74%. Further, the logD in data set [4] was 5.2. The outcome in the data set on Mus musculus [1] was inactive.
With `Cc1ccc(-n2nc(C(C)(C)C)cc2NC(=O)Nc2ccc(-c3ccc(CN(C)C)cc3)c3ccccc23)cc1`, the IC50 with THP-1 is 104 nM; with Blood, 9200 nM.
The corresponding values for `Cc1ccc(-n2nc(C(C)(C)C)cc2NC(=O)Nc2ccc(-c3ccc(CCN4CCOCC4)cc3)c3ccccc23)cc1` are 56 nM and 1700 nM.
As for `Cc1ccc(-n2nc(C(C)(C)C)cc2NC(=O)Nc2ccc(-c3ccc(CN4CCOCC4)nc3)c3ccccc23)cn1`, the IC50 stood at 11 nM in the data set with THP-1 and 200 nM with Blood. This molecule also gave an inhibition in vivo at 10 mg/kg in the data set on Mus musculus [2] of 86%. Further, the inhibition in vivo at 3 mg/kg in the data set on Mus musculus [1] was 50%.
`Cc1ccc(-n2nc(C(C)(C)C)cc2NC(=O)Nc2ccc(-c3ccc(CN4CCOCC4)cn3)c3ccccc23)cc1`: the IC50 in the data set on THP-1 was found to be 26 nM; in the data set on Blood it was 590 nM. For the same molecule, the logD in [4] came to 5.2.
In the data set on Mus musculus [2], `Cc1ccc(-n2nc(C(C)(C)C)cc2NC(=O)Nc2ccc(OCCN3CCOCC3)c3ccccc23)cc1` [DORAMAPIMOD] came in with an inhibition in vivo at 10 mg/kg of 63%. This molecule registered a logD in [4] of 4.3.
As for `Cc1ccc(-n2nc(C(C)(C)C)cc2NC(=O)Nc2ccc(-c3ccc(CN4CCOCC4)o3)c3ccccc23)cc1`, the results for the IC50 in the data set on THP-1 and with Blood were 70 nM and 6400 nM, respectively.
Taken in the same sequence, the figures for `Cc1ccc(-n2nc(C(C)(C)C)cc2NC(=O)Nc2ccc(-c3cccc(N4CCOCC4)c3)c3ccccc23)cc1` were 1350 nM and > 15000 nM.
